Test results as given in ChEMBL document CHEMBL2440080, “Synthesis and biological evaluation of novel acylhydrazone derivatives as potential antitumor agents” (Bioorg Med Chem, 2013).

How the values were obtained:
[1] = system: M14; assay: Cytotoxicity against human M14 cells after 48 hrs by sulforhodamine B assay; format: functional; settings: M14, 48 h
[2] = system: SK-OV-3; assay: Cytotoxicity against human SKOV3 cells after 48 hrs by sulforhodamine B assay; format: functional; settings: SK-OV-3, 48 h
[3] = system: HCC 2998; assay: Cytotoxicity against human HCC2998 cells after 48 hrs by sulforhodamine B assay; format: functional; settings: HCC 2998, 48 h
[4] = system: MCF7; assay: Cytotoxicity against human MCF7 cells after 48 hrs by sulforhodamine B assay; format: functional; settings: MCF7, 48 h
[5] = system: CCRF-CEM; assay: Cytotoxicity against human CCRF-CEM cells after 48 hrs by sulforhodamine B assay; format: functional
[6] = system: PC-3; assay: Cytotoxicity against human PC3 cells after 48 hrs by sulforhodamine B assay; format: functional; settings: PC-3, 48 h
[7] = system: MDA-MB-468; assay: Cytotoxicity against human MDA-MB-468 cells after 48 hrs by sulforhodamine B assay; format: functional; settings: MDA-MB-468, 48 h
[8] = system: U-251; assay: Cytotoxicity against human U251 cells after 48 hrs by sulforhodamine B assay; format: functional; settings: U-251, 48 h
[9] = system: MOLT-4; assay: Cytotoxicity against human MOLT4 cells after 48 hrs by sulforhodamine B assay; format: functional; settings: MOLT-4, 48 h
[10] = system: SN12C; assay: Cytotoxicity against human SN12C cells after 48 hrs by sulforhodamine B assay; format: functional
[11] = system: Mus musculus; assay: Toxicity in athymic nude mouse assessed as survival at 400 mg/kg, ip measured after 2 weeks; format: organism-based; parameters: dose 400 mg/kg, route intraperitoneal; settings: in vivo, 336 h
[12] = system: UACC-62; assay: Cytotoxicity against human UACC62 cells after 48 hrs by sulforhodamine B assay; format: functional; settings: UACC-62, 48 h
[13] = system: HOP-92; assay: Cytotoxicity against human HOP92 cells after 48 hrs by sulforhodamine B assay; format: functional; settings: HOP-92, 48 h
[14] = Cytotoxicity against human EKVX cells after 48 hrs by sulforhodamine B assay; format: functional
[15] = system: ACHN; assay: Cytotoxicity against human ACHN cells after 48 hrs by sulforhodamine B assay; format: functional
[16] = system: LOX IMVI; assay: Cytotoxicity against human LOXIMVI cells after 48 hrs by sulforhodamine B assay; format: functional
[17] = Cytotoxicity against human Hs 578T cells after 48 hrs by sulforhodamine B assay; format: functional
[18] = system: OVCAR-3; assay: Cytotoxicity against human OVCAR3 cells after 48 hrs by sulforhodamine B assay; format: functional; settings: OVCAR-3, 48 h
[19] = system: HOP-62; assay: Cytotoxicity against human HOP62 cells after 48 hrs by sulforhodamine B assay; format: functional; settings: HOP-62, 48 h
[20] = system: SF-539; assay: Cytotoxicity against human SF539 cells after 48 hrs by sulforhodamine B assay; format: functional; settings: SF-539, 48 h
[21] = system: KM12; assay: Cytotoxicity against human KM12 cells after 48 hrs by sulforhodamine B assay; format: functional; settings: KM12, 48 h
[22] = system: 786-0; assay: Cytotoxicity against human 786-0 cells after 48 hrs by sulforhodamine B assay; format: functional; settings: 786-0, 48 h
[23] = system: K562; assay: Cytotoxicity against human K562 cells after 48 hrs by sulforhodamine B assay; format: functional; settings: K562, 48 h
[24] = system: CAKI-1; assay: Cytotoxicity against human CAKI-1 cells after 48 hrs by sulforhodamine B assay; format: functional; settings: CAKI-1, 48 h
[25] = system: SR; assay: Cytotoxicity against human SR cells after 48 hrs by sulforhodamine B assay; format: functional
[26] = system: HCT-116; assay: Cytotoxicity against human HCT116 cells after 48 hrs by sulforhodamine B assay; format: functional; settings: HCT-116, 48 h
[27] = system: T47D; assay: Cytotoxicity against human T47D cells after 48 hrs by sulforhodamine B assay; format: functional
[28] = system: OVCAR-5; assay: Cytotoxicity against human OVCAR5 cells after 48 hrs by sulforhodamine B assay; format: functional; settings: OVCAR-5, 48 h
[29] = system: SF-268; assay: Cytotoxicity against human SF268 cells after 48 hrs by sulforhodamine B assay; format: functional; settings: SF-268, 48 h
[30] = system: OVCAR-4; assay: Cytotoxicity against human OVCAR4 cells after 48 hrs by sulforhodamine B assay; format: functional; settings: OVCAR-4, 48 h
[31] = system: UO-31; assay: Cytotoxicity against human UO31 cells after 48 hrs by sulforhodamine B assay; format: functional; settings: UO-31, 48 h
[32] = system: Malme-3M; assay: Cytotoxicity against human MALME-3M cells after 48 hrs by sulforhodamine B assay; format: functional
[33] = system: HT-29; assay: Cytotoxicity against human HT-29 cells after 48 hrs by sulforhodamine B assay; format: functional; settings: HT-29, 48 h
[34] = system: SNB-19; assay: Cytotoxicity against human SNB19 cells after 48 hrs by sulforhodamine B assay; format: functional; settings: SNB-19, 48 h
[35] = system: MDA-MB-435; assay: Cytotoxicity against human MDA-MB-435 cells after 48 hrs by sulforhodamine B assay; format: functional; settings: MDA-MB-435, 48 h
[36] = system: RXF 393; assay: Cytotoxicity against human RXF393 cells after 48 hrs by sulforhodamine B assay; format: functional; settings: RXF 393, 48 h
[37] = system: NCI-H23; assay: Cytotoxicity against human NCI-H23 cells after 48 hrs by sulforhodamine B assay; format: functional; settings: NCI-H23, 48 h
[38] = system: NCI-H322M; assay: Cytotoxicity against human NCI-H322M cells after 48 hrs by sulforhodamine B assay; format: functional
[39] = system: NCI/ADR-RES; assay: Cytotoxicity against human NCI/ADR-RES cells after 48 hrs by sulforhodamine B assay; format: functional
[40] = system: RPMI-8226; assay: Cytotoxicity against human RPMI8226 cells after 48 hrs by sulforhodamine B assay; format: functional; settings: RPMI-8226, 48 h
[41] = system: SK-MEL-2; assay: Cytotoxicity against human SK-MEL-2 cells after 48 hrs by sulforhodamine B assay; format: functional; settings: SK-MEL-2, 48 h
[42] = system: A498; assay: Cytotoxicity against human A498 cells after 48 hrs by sulforhodamine B assay; format: functional; settings: A498, 48 h
[43] = system: HL-60(TB); assay: Cytotoxicity against human HL-60(TB) cells after 48 hrs by sulforhodamine B assay; format: functional; settings: HL-60, 48 h
[44] = system: NCI-H226; assay: Cytotoxicity against human NCI-H226 cells after 48 hrs by sulforhodamine B assay; format: functional; settings: NCI-H226, 48 h
[45] = system: SF-295; assay: Cytotoxicity against human SF295 cells after 48 hrs by sulforhodamine B assay; format: functional; settings: SF-295, 48 h
[46] = system: OVCAR-8; assay: Cytotoxicity against human OVCAR8 cells after 48 hrs by sulforhodamine B assay; format: functional; settings: OVCAR-8, 48 h
[47] = system: COLO 205; assay: Cytotoxicity against human COLO205 cells after 48 hrs by sulforhodamine B assay; format: functional; settings: COLO 205, 48 h
[48] = system: IGROV-1; assay: Cytotoxicity against human IGROV1 cells after 48 hrs by sulforhodamine B assay; format: functional; settings: IGROV-1, 48 h
[49] = system: BT-549; assay: Cytotoxicity against human BT549 cells after 48 hrs by sulforhodamine B assay; format: functional; settings: BT-549, 48 h
[50] = system: SK-MEL-28; assay: Cytotoxicity against human SK-MEL-28 cells after 48 hrs by sulforhodamine B assay; format: functional; settings: SK-MEL-28, 48 h
[51] = system: SK-MEL-5; assay: Cytotoxicity against human SK-MEL-5 cells after 48 hrs by sulforhodamine B assay; format: functional; settings: SK-MEL-5, 48 h
[52] = system: TK-10; assay: Cytotoxicity against human TK10 cells after 48 hrs by sulforhodamine B assay; format: functional; settings: TK-10, 48 h
[53] = system: NCI-H522; assay: Cytotoxicity against human NCI-H522 cells after 48 hrs by sulforhodamine B assay; format: functional; settings: NCI-H522, 48 h
[54] = system: HCT-15; assay: Cytotoxicity against human HCT15 cells after 48 hrs by sulforhodamine B assay; format: functional; settings: HCT-15, 48 h
[55] = system: DU-145; assay: Cytotoxicity against human DU145 cells after 48 hrs by sulforhodamine B assay; format: functional; settings: DU-145, 48 h
[56] = system: SW-620; assay: Cytotoxicity against human SW620 cells after 48 hrs by sulforhodamine B assay; format: functional; settings: SW-620, 48 h
[57] = system: MDA-MB-231; assay: Cytotoxicity against human MDA-MB-231 cells after 48 hrs by sulforhodamine B assay; format: functional; settings: MDA-MB-231, 48 h
[58] = system: SNB-75; assay: Cytotoxicity against human SNB75 cells after 48 hrs by sulforhodamine B assay; format: functional; settings: SNB-75, 48 h
[59] = system: NCI-H460; assay: Cytotoxicity against human NCI-H460 cells after 48 hrs by sulforhodamine B assay; format: functional; settings: NCI-H460, 48 h
[60] = system: A549; assay: Cytotoxicity against human A549/ATCC cells after 48 hrs by sulforhodamine B assay; format: functional; settings: A549, 48 h
[61] = system: UACC-257; assay: Cytotoxicity against human UACC257 cells after 48 hrs by sulforhodamine B assay; format: functional; settings: UACC-257, 48 h

CCN(CC)c1ccc(/C=N/NC(=O)c2ccccc2Nc2ccnc(C(F)(F)F)c2)c(O)c1
GI50 [1]: 129 nM | GI50 [2]: 174 nM | GI50 [3]: 191 nM | GI50 [4]: 288 nM | GI50 [5]: 31.6 nM | GI50 [6]: 263 nM | GI50 [7]: 151 nM | GI50 [8]: 126 nM | GI50 [9]: 79.4 nM | GI50 [10]: 240 nM | Activity [11]: Non-toxic | GI50 [12]: 214 nM | GI50 [13]: 251 nM | GI50 [14]: 158 nM | GI50 [15]: 79.4 nM | GI50 [16]: 79.4 nM | GI50 [17]: 871 nM | GI50 [18]: 126 nM | GI50 [19]: 105 nM | GI50 [20]: 245 nM | GI50 [21]: 251 nM | GI50 [22]: 182 nM | GI50 [23]: 380 nM | GI50 [24]: 63.1 nM | GI50 [25]: 138 nM | GI50 [26]: 100 nM | GI50 [27]: 550 nM | GI50 [28]: 200 nM | GI50 [29]: 69.2 nM | GI50 [30]: 87.1 nM | GI50 [31]: 141 nM | GI50 [32]: 339 nM | GI50 [33]: 347 nM | GI50 [34]: 479 nM | GI50 [35]: 457 nM | GI50 [36]: 251 nM | GI50 [37]: 513 nM | GI50 [38]: 100 nM | GI50 [39]: 263 nM | GI50 [40]: 41.7 nM | GI50 [41]: 501 nM | GI50 [42]: 178 nM | GI50 [43]: 251 nM | GI50 [44]: 151 nM | GI50 [45]: 251 nM | GI50 [46]: 209 nM | GI50 [47]: 174 nM | GI50 [48]: 79.4 nM | GI50 [49]: 347 nM | GI50 [50]: 240 nM | GI50 [51]: 158 nM | GI50 [52]: 166 nM | GI50 [53]: 263 nM | GI50 [54]: 50.1 nM | GI50 [55]: 126 nM | GI50 [56]: 363 nM | GI50 [57]: 195 nM | GI50 [58]: 209 nM | GI50 [59]: 67.6 nM | GI50 [60]: 309 nM | GI50 [61]: 324 nM
